In patent US9023843B2, “Antimicrobial compounds and methods of making and using the same” (Melinta Therapeutics, Inc., priority 2009, dated 2015):

tested on: Eschericia coli strain ATCC25922; test: standard microdilution assay to determine minimum inhibitory concentrations (MICs); assay type: cell-based; conditions: Escherichia coli, read-out: E. coli ATCC25922 MIC
Method: Minimum inhibitory concentrations (MICs) are determined by the microdilution method, typically in a final volume of 100 microliters, according to protocols outlined by The Clinical and Laboratory Standards Institute [CLSI; formerly the National Committee for Clinical Laboratory Standards (NCCLS)]. See CLSI: Methods for dilution antimicrobial susceptibility tests for bacteria that grow aerobically; approved standard-fifth edition. Wayne, Pa.: NCCLS; 2000. The assays can be also be performed in microtiter trays according to conventional methodologies as published by the CLSI. See CLSI. Methods for Dilution Antimicrobial Susceptibility Tests for Bacteria That Grow Aerobically; Approved Standard-Seventh Edition. CLSI Document M7-A7 [ISBN 1-56238-587-9] CLSI, 940 West Valley Road, Suite 1400, Wayne Pa. 19087-1898 USA, 2006).
The compounds of the present invention were tested for antimicrobial activity. The compounds were run against Eschericia coli strain ATCC25922 using a standard microdilution assay to determine minimum inhibitory concentrations (MICs). […] A “N/A” means that data is unavailable. It will be recognized by one skilled in the art that the compounds can be assessed against other bacterial organisms and that the presentation of data for activity against Eschericia coli is illustrative and in no way is intended to limit the scope of the present invention. The compounds of the present invention can be assayed against a range of other microorganisms depending upon the performance activity desired to be gathered. Furthermore, the “+”, “−”, and “N/A” representation and the selection of a cutoff value of 16 micrograms/ml is also illustrative and in no way is intended to limit the scope of the present invention.

MIC | Structure (SMILES)
> 16 µg/mL | NCCCNCc1ccc(-c2cn3c(=O)cc(Cc4ccc(Cl)c(Cl)c4)[nH]c3nc2=O)cc1 [Compound 430]
> 16 µg/mL | NCCCNC1CCC(n2cc3c(nc2=O)Nc2cc(-c4ccc(C(F)(F)F)nc4)ccc2O3)CC1 (centres unmarked) [Compound 672]
> 16 µg/mL | NCCCN1CCN(C(=O)Cn2cc3c(nc2=O)Nc2ccccc2O3)CC1 [Compound 392]
> 16 µg/mL | NCCCNCc1ccc(-c2cn3c(=O)cc(-c4ccccc4F)[nH]c3nc2=O)cc1 [Compound 360]
> 16 µg/mL | NC1CCC(n2cc3c(nc2=O)Nc2cc(C4CCN(CC(=O)N(Cc5ccc6[nH]cnc6c5)C5CCNCC5)CC4)ccc2O3)CC1 (centres unmarked) [Compound 1096]
> 16 µg/mL | O=c1nc2c(cn1C1CCNCC1)Oc1ccccc1N2 [Compound 578]
> 16 µg/mL | NCCCCN1CCCC(n2cc3c(nc2=O)Nc2ccccc2O3)CC1 (centres unmarked) [Compound 604]
< 16 µg/mL | CN1CCN(CCCNC(=O)c2ccc3c(c2)Nc2nc(=O)n(C4CCC(NCCCNC(=N)N)CC4)cc2O3)CC1 (centres unmarked) [Compound 774]
< 16 µg/mL | N=C(N)NCC(=O)N1CCC(c2ccc3c(c2)Nc2nc(=O)n(C4CCCN(CCCN)CC4)cc2O3)CC1 (centres unmarked) [Compound 832]
> 16 µg/mL | NCCOc1cccc2c1Nc1nc(=O)n([C@H]3CC[C@H](CN)CC3)cc1O2 [Compound 1427]
> 16 µg/mL | O=C(NCCCN1CCNCC1)c1ccc2c(c1)Nc1nc(=O)n(CCO)cc1O2 [Compound 858]
> 16 µg/mL | N=C(N)NCCCN1CCC(n2cc3c(nc2=O)Nc2cc(C4CCN(C(=O)Nc5ccc(F)c(Cl)c5)CC4)ccc2O3)CC1 [Compound 730]
> 16 µg/mL | Cn1cnc(S(=O)(=O)N2CCC(c3ccc4c(c3)Nc3nc(=O)n(C5CCC(NCCCNC(=N)N)CC5)cc3O4)CC2)c1 (centres unmarked) [Compound 750]
> 16 µg/mL | COC(=O)c1ccc2c(c1)Nc1nc(=O)n(C3CCN(CCCN)CC3)cc1O2 [Compound 606]
> 16 µg/mL | CN(C)CC(=O)N1CCC(c2ccc3c(c2)Nc2nc(=O)n(C4CCN(CCCNC(=N)N)CC4)cc2O3)CC1 [Compound 691]
> 16 µg/mL | O=c1nc2c(cn1C1CCCNCC1)Oc1ccccc1N2 (centres unmarked) [Compound 595]
> 16 µg/mL | NC1CCC(n2cc3c(nc2=O)Nc2cc(C4CCNCC4)ccc2O3)CC1 (centres unmarked) [Compound 972]
> 16 µg/mL | NCCCNCc1ccc(-n2cc3c(nc2=O)Nc2cc(-c4cnc(N5CCOCC5)nc4)ccc2O3)cc1 [Compound 440]
> 16 µg/mL | NCCCN1CCCC(n2cc3c(nc2=O)Nc2cc(C(=O)N4CCC[C@@H](N)C4)ccc2O3)CC1 (some centres unmarked) [Compound 888]
> 16 µg/mL | COc1cccc2c1Nc1nc(=O)n([C@H]3CC[C@H](CN)CC3)cc1O2 [Compound 4000c]
> 16 µg/mL | NC1CCCN(C(=O)c2ccc3c(c2)Nc2nc(=O)n(C4CCCNCC4)cc2O3)C1 (centres unmarked) [Compound 891]
> 16 µg/mL | NCCCNCc1ccc(-c2cn3c(=O)cc(Cc4ccc(C(F)(F)F)cc4)[nH]c3nc2=O)cc1 [Compound 367]
> 16 µg/mL | NCC1CCC(n2cc3c(nc2=O)Nc2cc(C4CCNCC4)ccc2O3)CC1 (centres unmarked) [Compound 1369]
> 16 µg/mL | NCCCNCc1ccc(-n2cc3c(nc2=O)Nc2ccc(C#Cc4ccc(F)cc4)cc2O3)cc1 [Compound 460]
> 16 µg/mL | CN(C)CCCOc1cccc2c1Nc1nc(=O)n(C3CCC(CN)CC3)cc1O2 (centres unmarked) [Compound 1421]
> 16 µg/mL | N=C(N)NCCCNC(=O)[C@H]1CC[C@H](n2cc3c(nc2=O)Nc2c(CCCN)cccc2O3)CC1 [Compound 4008c]
< 16 µg/mL | N=C(N)NCCCNC(=O)[C@H]1CC[C@H](n2cc3c(nc2=O)Nc2c(OCCN)cccc2O3)CC1 [Compound 4006c]
< 16 µg/mL | N=C(N)NCCCNC1CCC(n2cc3c(nc2=O)Nc2cc(C(=O)NCCCN4CCOCC4)ccc2O3)CC1 (centres unmarked) [Compound 781]
< 16 µg/mL | NCCCN(C(=O)CCN)C1CCC(n2cc3c(nc2=O)Nc2cc(C4CCNCC4)ccc2O3)CC1 (centres unmarked) [Compound 1146]

Structure (SMILES) | MIC
NCCCn1c(-c2ccc(F)cc2)cn2c(=O)c(C3=CCNCC3)cnc12 [Compound 570] | > 16 µg/mL
NCCCN1CC=C(c2cnc3n(CCCN)c(-c4ccc(F)cc4)cn3c2=O)CC1 [Compound 568] | > 16 µg/mL
NCCCN1CC=C(c2cnc3[nH]c(-c4ccc(F)cc4)cn3c2=O)CC1 [Compound 569] | > 16 µg/mL
